The text below walks through data of PMC7580722, “Design of new disubstituted imidazo[1,2-b]pyridazine derivatives as selective Haspin inhibitors. Synthesis, binding mode and anticancer biological evaluation” (Journal of Enzyme Inhibition and Medicinal Chemistry, 2020).

The target of one data set is T1, HsHaspin (Homo sapiens, UniProt Q8TF76).
T1 construct: aa470-798; made in house; host or cells: E. coli
T1 sequence (Q8TF76 470-798): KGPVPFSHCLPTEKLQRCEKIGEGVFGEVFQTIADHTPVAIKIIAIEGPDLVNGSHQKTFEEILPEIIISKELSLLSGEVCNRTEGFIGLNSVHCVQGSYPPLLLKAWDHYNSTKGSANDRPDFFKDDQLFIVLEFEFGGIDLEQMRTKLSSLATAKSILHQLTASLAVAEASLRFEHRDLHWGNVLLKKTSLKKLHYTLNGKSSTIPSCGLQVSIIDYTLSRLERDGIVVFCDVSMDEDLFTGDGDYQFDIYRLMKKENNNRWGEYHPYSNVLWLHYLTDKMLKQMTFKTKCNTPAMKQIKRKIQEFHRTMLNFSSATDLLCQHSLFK
Description: Recombinant Haspin kinase assay ([γ-33P]ATP, 15 µM ATP; some values ADP-Glo). The data set is classed as biochemical. To be noted: average selectivity index over the protein kinases tested vs Haspin. The protocol: (§1) Values are IC50 expressed in µM and calculated from dose–response curves (each point on the curves was performed in triplicate). Selectivity indexes (SI; in brackets) are calculated as follows: SI = IC50 kinase X/IC50 Haspin. ND: not determined. *IC50 values obtained using the ADP-Glo methodology (see Experimental section, Supplementary Material). […]
(§2) A, HsCdk9/Cyclin T). Native SscCK1δ /ε and SscGSK3α/β were purified from pig brain whereas HsPlk1, HsCdk1 and HsAurora B were purchased from ProQinase and SignalChem respectively. Kinase assays were performed in […]
(§3) mCi/ml; PerkinElmer) in a final volume of 30 µl as previously reported 51. After 30 min incubation at 30°C, the reaction mix was spotted onto GE healthcare P81 phosphocellulose paper using a FilterMate Harvester (PerkinElmer), and the filter was extensively washed with a 1% phosphoric acid solution. The wet filter-bound radioactivity was determined in the presence of 20 µl scintillation fluid (GE healthcare) with a TopCount® Scintillation and Luminescence Counter (PerkinElmer). IC50 values were calculated from dose-response curves […]
(§4) Kinase activities using the ADP-Glo methodology (ADP-Glo Kinase Assay; Promega) were assayed according to the assay described in Nguyen et al. 52 and Ibrahim et al. 53. […]

The target in a further data set is T2, HsAurora B (Homo sapiens, UniProt Q96GD4).
T2 construct: purchased SignalChem
The experiment in a line: Aurora B kinase assay. The format is biochemical. On the procedure:
as §1
Recombinant protein kinases were expressed and purified from E. coli (HsHaspin kinase domain aa470-798, HsCdk5/p25, RnDYRK1A kinase domain aa1-499, HsPIM1, MmCLK1) or baculovirus/Sf9 cells (HsCdk2/Cyclin A, HsCdk9/Cyclin T). Native SscCK1δ /ε and SscGSK3α/β were purified from pig brain whereas HsPlk1, HsCdk1 and HsAurora B were purchased from ProQinase and SignalChem respectively. Kinase assays were performed in specific buffers and substrates for each kinase tested in the presence of 15 µM [γ-33P] ATP (3,000 Ci/mmol, 10 mCi/ml; PerkinElmer) in a final volume of 30 µl as previously reported 51. After 30 min incubation at 30°C, the reaction mix was spotted onto GE healthcare P81 phosphocellulose paper using a FilterMate Harvester (PerkinElmer), and the filter was extensively washed with a 1% phosphoric acid solution. The wet filter-bound radioactivity was determined in the presence of 20 µl scintillation fluid (GE healthcare) with a TopCount® Scintillation and Luminescence Counter (PerkinElmer). IC50 values were calculated from dose-response curves […]
as §4

A further data set addresses T3, HsCdk2/Cyclin A (Homo sapiens, UniProt P24941).
T3 construct: made in house; host or cells: baculovirus/Sf9 cells
The experiment in a line: CDK2 kinase assay. The format is biochemical. The protocol:
as §1, §2, §3, §4

A further data set has as its target T4, HsCDK1 (Homo sapiens, UniProt P06493).
T4 construct: purchased ProQinase
Description: CDK1 kinase assay. The format is biochemical. On the procedure:
We therefore tested our compounds on two obvious candidates, HsCDK1 and HsPLK1 (Polo-like_kinase 1) both required for mitotic entry[50]
(§5) Values are IC50 expressed in µM and calculated from dose–response curves (each point from the curves was performed in duplicate). NR: not relevant. […]
(§6) Recombinant protein kinases were expressed and purified from E. coli (HsHaspin kinase domain aa470-798, HsCdk5/p25, RnDYRK1A kinase domain aa1-499, HsPIM1, MmCLK1) or baculovirus/Sf9 cells (HsCdk2/Cyclin A, HsCdk9/Cyclin T). Native SscCK1δ /ε and SscGSK3α/β were purified from pig brain whereas HsPlk1, HsCdk1 and HsAurora B were purchased from ProQinase and SignalChem respectively. Kinase assays were performed in specific buffers and substrates for each kinase tested in the presence of 15 µM [γ-33P] ATP (3,000 Ci/mmol, 10 mCi/ml; PerkinElmer) in a final volume of 30 µl as previously reported 51. After 30 min incubation at 30°C, the reaction mix was spotted onto GE healthcare P81 phosphocellulose paper using a FilterMate Harvester (PerkinElmer), and the filter was extensively washed with a 1% phosphoric acid solution. The wet filter-bound radioactivity was determined in the presence of 20 µl scintillation fluid (GE healthcare) with a TopCount® Scintillation and Luminescence Counter (PerkinElmer). IC50 values were calculated from dose-response curves

In a further data set the target is T5, HsPLK1 (Homo sapiens, UniProt P53350).
T5 construct: purchased ProQinase
Description: PLK1 kinase assay. The format is biochemical. To be noted: Table 4. On the procedure:
. We therefore tested our compounds on two obvious candidates, HsCDK1 and HsPLK1 (Polo-like_kinase 1) both required for mitotic entry[50] (Table 4).
as §5, §6

The next data set concerns the target T6, Haspin (Homo sapiens, UniProt Q8TF76).
T6 construct: aa470-798; made in house; host or cells: E. coli
Description: ATP competition assay on Haspin kinase activity. The format is biochemical. The protocol:
We first conducted an ATP competition assay with compound 12 on Haspin kinase activity (Figure 3(A)). We tested an ATP concentration range from 5 to 240 µM on compound 12 concentrations ranging from 0.001 to 10 µm.
Figure 3. Binding mode of selected compounds with Haspin. (A) ATP competition assay with compound 12. (B) Crystal structure of Haspin with compound 12. […] (C) Superimposition of the binding mode of compounds 12 (yellow carbon atoms) and 21 (grey carbon atoms) in Haspin active site. The three-letter amino acid code and residue number are labelled next to each side chain.

The subject of another data set is RPE-1. Description: Cell viability, monolayer (2D), MTS assay. The format is cell-based. The conditions noted are these: Homo sapiens, 48 h.
The subject of a further data set is U-2 OS. Description: Cell viability, monolayer (2D), MTS assay. The conditions noted are these: Homo sapiens, U2OS, 48 h. The data set is classed as cell-based.
In a further data set the test system is SH-SY5Y. Description: Cell viability, monolayer (2D), MTS assay. The data set is classed as cell-based. To be noted: Homo sapiens, 48 h.
Another data set has as its system HCT116. The experiment in a line: Cell viability, monolayer (2D), MTS assay. The data set is classed as cell-based. To be noted: Homo sapiens, HCT-116, 48 h.
A further data set deals with HBL100. Description: Cell viability, monolayer (2D), MTS assay. The conditions noted are these: Homo sapiens, HBL-100, 48 h. The data set is classed as cell-based.
The subject of another data set is U-2 OS spheroids. The experiment in a line: Spheroid (3D) viability, CellTiter-Glo. To be noted: Homo sapiens, U2OS. The format is cell-based, human.
For data set [1], the system named is Haspin activity (H3T3ph) in U-2 OS cells. The experiment in a line: In-cell Haspin activity, H3T3ph immunofluorescence. The format is cell-based, human. To be noted: 24 h; for H3T3ph signal remaining in prometaphase cells (% of ctrl): 0.5 µM; for inhibition at 0.05 µM: Homo sapiens, U2OS, read-out: inhibition of cellular Haspin activity.
Data set [2] relates to U-2 OS cells. The experiment in a line: Scratch wound cell migration assay (IncuCyte). The format is cell-based, human. The conditions noted are these: 0.6 µM, 0.5% FBS, normalised against DMSO control (100%).
Data set [3] deals with U-2 OS cells. The experiment in a line: Cell cycle analysis by flow cytometry (propidium iodide). The conditions noted are these: for cells in S phase (% of cell total population): DMSO control 51.9%.
Description: Figure 6. […] DNA content was measured by flow cytometry and representative profiles are shown. (B) quantification of the proportion of cells in each phase of the cell cycle from the experiment described in (A). Results are mean percentage (n = 3 independent experiments).
Cellular evaluation methods
All media were supplemented with 10% fetal calf serum (unless overwise specified) and 2 mM L-glutamine and cells were cultured
F68-pluronic acid. Cells were fixed for 2h in ice-cold ethanol, then washed twice in PBS containing 0.1% F68-pluronic acid, centrifuged at 200 g and resuspended in a PBS buffer containing 1% Triton, 100 µg/ml RNase A (Thermo Scientific) and 40 µg/ml propidium iodide (Life Technologies). DNA content was determined using a FACS Canto II (BD) and the data were analyzed using FCS Express Cytometry software (De Novo Software).
Twenty thousand events were collected in each run.
The subject of the next data set is HCT116 spheroids. Description: Spheroid (3D) viability, CellTiter-Glo. The format is cell-based, human. The conditions noted are these: 5 µM, Figure 4(A).
The test system of another data set is HBL100 spheroids. The experiment in a line: Spheroid (3D) viability, CellTiter-Glo. The format is cell-based, human. To be noted: 5 µM, Figure 4(A).
Another data set deals with HCT-116 cells xenografts. More on the design: method as in PMID 21804608. To be noted: nude mice xenografts of HCT-116 cells; cited from earlier work.
A further data set relates to melanoma cancer lines. On the set-up: method as in PMID 28928884. The conditions noted are these: alone or in combination with Trametinib; cited from earlier work.
The mark [4] stands for this setting: 48 h, 2 days, Figure 4(B), read-out: U-2 OS spheroid remaining viability.

Read-outs that look alike come from different tables or passages of the source. A value given as a limit tells only on which side of the number the result lay.

T4 sequence (P06493 whole entry): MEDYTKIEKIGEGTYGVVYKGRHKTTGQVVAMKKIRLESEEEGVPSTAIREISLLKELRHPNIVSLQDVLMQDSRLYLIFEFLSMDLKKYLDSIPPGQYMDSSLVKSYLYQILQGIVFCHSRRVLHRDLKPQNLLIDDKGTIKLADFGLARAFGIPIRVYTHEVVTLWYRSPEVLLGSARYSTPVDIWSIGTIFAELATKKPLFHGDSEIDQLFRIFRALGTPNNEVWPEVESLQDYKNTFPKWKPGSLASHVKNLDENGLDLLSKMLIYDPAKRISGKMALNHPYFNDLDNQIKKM
T4 sequence (P14635 whole entry partner): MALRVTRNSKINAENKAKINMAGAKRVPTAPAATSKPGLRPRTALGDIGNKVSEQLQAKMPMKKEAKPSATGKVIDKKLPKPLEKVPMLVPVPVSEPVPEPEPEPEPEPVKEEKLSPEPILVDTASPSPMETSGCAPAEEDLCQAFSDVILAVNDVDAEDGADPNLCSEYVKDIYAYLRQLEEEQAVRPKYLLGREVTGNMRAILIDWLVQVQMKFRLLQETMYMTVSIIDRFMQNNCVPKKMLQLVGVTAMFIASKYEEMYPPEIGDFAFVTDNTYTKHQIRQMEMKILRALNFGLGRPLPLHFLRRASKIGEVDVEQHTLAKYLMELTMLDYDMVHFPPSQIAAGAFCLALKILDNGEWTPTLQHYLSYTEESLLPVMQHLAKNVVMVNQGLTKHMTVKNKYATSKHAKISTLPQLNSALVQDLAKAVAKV
T5 sequence (P53350 whole entry): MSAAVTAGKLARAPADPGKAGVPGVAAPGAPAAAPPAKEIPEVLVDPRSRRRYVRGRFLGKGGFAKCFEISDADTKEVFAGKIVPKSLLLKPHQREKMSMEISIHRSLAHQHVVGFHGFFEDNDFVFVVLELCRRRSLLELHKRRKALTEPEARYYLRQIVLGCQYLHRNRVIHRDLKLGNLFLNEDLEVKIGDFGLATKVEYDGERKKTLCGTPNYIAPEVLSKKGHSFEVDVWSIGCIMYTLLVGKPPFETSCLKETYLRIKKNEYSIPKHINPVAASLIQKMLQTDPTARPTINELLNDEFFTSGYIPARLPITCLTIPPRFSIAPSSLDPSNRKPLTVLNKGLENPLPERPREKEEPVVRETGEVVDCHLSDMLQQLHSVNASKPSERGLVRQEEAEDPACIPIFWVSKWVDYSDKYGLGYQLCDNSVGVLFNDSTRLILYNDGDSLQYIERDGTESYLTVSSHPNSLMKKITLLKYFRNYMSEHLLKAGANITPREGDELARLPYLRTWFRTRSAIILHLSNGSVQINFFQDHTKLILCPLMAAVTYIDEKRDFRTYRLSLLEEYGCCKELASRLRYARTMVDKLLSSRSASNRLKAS
T2 sequence (Q96GD4 whole entry): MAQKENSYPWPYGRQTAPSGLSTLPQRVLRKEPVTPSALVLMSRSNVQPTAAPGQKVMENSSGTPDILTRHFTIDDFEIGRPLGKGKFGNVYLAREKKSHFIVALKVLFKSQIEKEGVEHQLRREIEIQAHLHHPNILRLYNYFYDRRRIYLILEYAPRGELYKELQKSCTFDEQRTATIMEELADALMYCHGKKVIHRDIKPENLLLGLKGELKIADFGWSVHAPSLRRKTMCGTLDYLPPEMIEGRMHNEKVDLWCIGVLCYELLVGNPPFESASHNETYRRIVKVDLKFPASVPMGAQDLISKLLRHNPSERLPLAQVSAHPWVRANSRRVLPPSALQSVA

Regarding `CC[C@H](CO)Nc1ccc2ncc(-c3ccc4[nH]ncc4c3)n2n1` [Compound 12], the “average SI” value on HsHaspin was determined as 24.2. Also, the “Aurora B inhibition (in words)” value on HsAurora B is given as “did not inhibit Aurora B kinase”. Further, the IC50 at HsCdk2/Cyclin A (read-out: IC50 CDK2) was 0.11 µM; on HsCDK1 (Table 4, read-out: IC50 HsCDK1), 0.052 µM; against HsPLK1 it was more than 10 µM; on Haspin (5 µM ATP, read-out: IC50 Haspin at 5 µM ATP), 0.006 µM; at Haspin (240 µM ATP, read-out: IC50 Haspin at 240 µM ATP), 0.95 µM. Besides, the “SI CDK1/Haspin” value on HsCDK1 (SI = IC50 CDK1/IC50 Haspin) is 0.8. In addition, the EC50 in the data set with RPE-1 was 6.8 µM; with U-2 OS it was more than 10 µM; in the data set on SH-SY5Y, more than 10 µM; in the data set with HCT116, more than 10 µM; with HBL100, 6.6 µM. Also, the viability at 5 µM in the data set on U-2 OS spheroids (setting [4]) turned out to be 13.1%. In addition, the viability at 1 µM with U-2 OS spheroids (240 h, 1 µM, 10 days, Figure 4(B), read-out: U-2 OS spheroid remaining viability) is 66%. Moreover, the viability at 2.5 µM in the data set with U-2 OS spheroids (240 h, 2.5 µM, 10 days, Figure 4(B), read-out: U-2 OS spheroid remaining viability) stood at 50%. Besides, in data set [1], the “H3T3ph signal remaining in prometaphase cells (% of ctrl)” value is given as 1.9%. Further, the inhibition at 0.05 µM in [1] is more than 80%. Besides, the “normalised wound closure after 24 h” value in the data set with U-2 OS cells [2] stood at 88%. In the data set on U-2 OS cells [3] (2.5 µM, 24 h, U-2 OS, DMSO control 12.8%), the “cells in G2/M phase (% of cell total population)” value was determined as 29.9%. Moreover, in the data set with U-2 OS cells [3] (2.5 µM, 24 h, U-2 OS), the “cells in S phase (% of cell total population)” value was found to be 34.4%.

`CCCNc1ccc2ncc(-c3ccc4[nH]ncc4c3)n2n1` [Compound 5, reference compound]: the concentration for half-maximal inhibition (IC50) against HsCdk2/Cyclin A was 0.091 µM; against HsCDK1 it was 0.029 µM; at HsPLK1, more than 10 µM. Besides, the EC50 in the data set with RPE-1 was 3.8 µM; in the data set on U-2 OS it was 5.1 µM; in the data set on SH-SY5Y it was more than 10 µM; with HCT116 it was 9 µM; in the data set with HBL100 it was more than 10 µM. Moreover, the viability at 5 µM came to 9.7% in the data set with U-2 OS spheroids (setting [4]); 1% in the data set with U-2 OS spheroids (240 h, 10 days, Figure 4(A), read-out: U-2 OS spheroid viability (% of DMSO control)); 49% in the data set with U-2 OS spheroids (48 h, Figure 4(A), read-out: U-2 OS spheroid viability (% of DMSO control)). Also, the HCT116 spheroid viability result is listed as “without any significant effect” with HCT116 spheroids (48 h) and “remained mostly unresponsive” in the data set on HCT116 spheroids (10 days). The “HBL-100 spheroid viability (% of DMSO control)” value with HBL100 spheroids (48 h) is reported as “without any significant effect”. For the same molecule, the HBL100 spheroid viability entry with HBL100 spheroids (10 days) is given as “remained mostly unresponsive”. Also, in [1], the “H3T3ph signal remaining in prometaphase cells (% of ctrl)” value is listed as 2.5%. Further, the inhibition at 0.05 µM in data set [1] was more than 80%. Moreover, in the data set with HCT-116 cells xenografts, the “effect on angiogenesis and tumour growth” value was “reduced angiogenesis and tumour growth”. Moreover, the “effect on cell viability and mobility of melanoma lines” value with melanoma cancer lines is “affects also cell viability and mobility of several melanoma cancer lines”. Further, in the data set on U-2 OS cells [3] (2.5 µM, 24 h, U-2 OS), the “cells in S phase (% of cell total population)” value was 30.9%. Besides, the “cell cycle effect (in words)” value with U-2 OS cells [3] (Figure 2) is listed as “Cell cycle arrest in G2/M”.
